Laboratory results taken from patent US20080182842A1, “L-alanine derivatives as a5beta1 antagonists” (ASTRAZENECA AB, priority 2007, published 2008).

Molecular target: α5β1 integrin (Homo sapiens, UniProt P05556+P08648)
Test: In vitro binding assay (a): inhibition of binding of α5β1 integrin to fibronectin fragment Fn9-10 (Origen electrochemiluminescence)
Details: recombinant human α5β1 vs Fn9-10 ligand; geometric mean where tested more than once
From the text: (a) In Vitro Binding Assay
The assay determined the ability of compounds to inhibit binding of α5β1 integrin to a cognate ligand, a fragment of human fibronectin. The assay used Origen technology (IGEN International) to measure the compound activity. Briefly, α5β1 integrin was coated onto epoxy-paramagnetic beads (Dynal Biotech UK, Bromborough, Wirral, CH62 3QL, UK, Catalogue No 140.11) and biotinylated-fibronectin ligand was coupled to strepatividin labeled Tag-NHS-Ester (BioVeris Corporation, Witney, Oxfordshire, OX28 4GE, UK, Catalogue No 110034). The ruthenium-labeled tag emits an electrochemiluminescence signal upon stimulation which is detected by the Origen reader. Thus, interaction of integrin and ligand causes association of bead and tag, and the resulting electrochemiluminescence signal reflects the level of integrin interaction with fibronectin.
20 μg of recombinant human α5β1 was coated onto 4×10(7) epoxy-paramagnetic beads according to manufacturers instructions at 4° C. for 24 hours. Integrin coating and corresponding activity was subsequently measured for each batch but typically, 25 ng of coated protein was used per assay well.
A DNA fragment encoding the domains 9-10 (amino-acids 1325-1509) of human fibronectin (Swiss-Prot Accession No. P02751) was isolated from cDNA libraries using standard molecular biology and PCR cloning techniques. The cDNA fragment was sub-cloned into a pT73.3 expression vector containing a GST-epitope tag (developed at AstraZeneca; Bagnall et al., Protein Expression and Purification, 2003, 27: 1-11). Following expression in E. coli, the expressed protein, termed Fn9-10, was purified using the GST-tag using standard purification techniques. The recombinant Fn9-10 was subsequently biotinylated using a EZ-link Sulfo-NHS-LC-Biotinylation kit (Perbio Science UK Ltd., Cramlington, Northumberland, NE23 1WA, UK, Catalogue No. 21335) and made to give a final concentration of approximately 1 mg/ml. Tag-NHS-Ester was labeled with streptavidin by incubation at room temperature following manufacturers instructions and buffer-exchanged into PBS to give a concentration of 0.5 mg/ ml. Immediately prior to the assay, biotinylated-Fn9-10 and Streptavidin-labeled Tag were diluted in Assay Buffer to give a final concentrations of 0.6 ug/ml and 1.5 ug/ml respectively. The Fn9-10 and Tag solutions were then mixed together in equal volumes and incubated on ice for at least 30 minutes prior to the assay.
Test compounds were prepared as 10 mM stock solutions in DMSO (Sigma-Aldrich Company Ltd, Gillingham, Dorset SP8 4XT Catalogue No. 154938) and serially diluted with 4% DMSO to give a range of test concentrations at ×4 required final concentration. Aliquots (20 μl) of each compound dilution were placed into each well of a 384-well round bottomed polypropylene plate (Matrix Technologies, Wilmslow, Cheshire, SK9 3LP, Catalogue No. 4340 384). Each plate also contained control wells: maximum signal was created using wells containing 20 μl of 4% DMSO, and minimum signal corresponding to no binding was created using wells containing 20 μl of 80 mM EDTA (Sigma Catalogue No. E7889).
For the assay, 25 ng(20 ul) of a5b1-bead suspension and 40 μl of the Fn9-10/Tag pre-incubated solution were added to each well containing 20 μl of compound or control solution. Assay plates were then incubated at room temperature for a minimum of 6 hours before being analysed on an Origen plate reader. The minimum value was subtracted from all values, and the signal was plotted against compound concentration to generate IC50 data.
The data in the above table was generated in an assay substantially as described above in relation to Binding Assay (a). Some of the compounds shown in the table were tested more than once in the assay. For those compounds the IC50 value shown is the geometric mean of the measured IC50 values. […]

α5β1 integrin, sequence (P08648 42-894 limits assumed): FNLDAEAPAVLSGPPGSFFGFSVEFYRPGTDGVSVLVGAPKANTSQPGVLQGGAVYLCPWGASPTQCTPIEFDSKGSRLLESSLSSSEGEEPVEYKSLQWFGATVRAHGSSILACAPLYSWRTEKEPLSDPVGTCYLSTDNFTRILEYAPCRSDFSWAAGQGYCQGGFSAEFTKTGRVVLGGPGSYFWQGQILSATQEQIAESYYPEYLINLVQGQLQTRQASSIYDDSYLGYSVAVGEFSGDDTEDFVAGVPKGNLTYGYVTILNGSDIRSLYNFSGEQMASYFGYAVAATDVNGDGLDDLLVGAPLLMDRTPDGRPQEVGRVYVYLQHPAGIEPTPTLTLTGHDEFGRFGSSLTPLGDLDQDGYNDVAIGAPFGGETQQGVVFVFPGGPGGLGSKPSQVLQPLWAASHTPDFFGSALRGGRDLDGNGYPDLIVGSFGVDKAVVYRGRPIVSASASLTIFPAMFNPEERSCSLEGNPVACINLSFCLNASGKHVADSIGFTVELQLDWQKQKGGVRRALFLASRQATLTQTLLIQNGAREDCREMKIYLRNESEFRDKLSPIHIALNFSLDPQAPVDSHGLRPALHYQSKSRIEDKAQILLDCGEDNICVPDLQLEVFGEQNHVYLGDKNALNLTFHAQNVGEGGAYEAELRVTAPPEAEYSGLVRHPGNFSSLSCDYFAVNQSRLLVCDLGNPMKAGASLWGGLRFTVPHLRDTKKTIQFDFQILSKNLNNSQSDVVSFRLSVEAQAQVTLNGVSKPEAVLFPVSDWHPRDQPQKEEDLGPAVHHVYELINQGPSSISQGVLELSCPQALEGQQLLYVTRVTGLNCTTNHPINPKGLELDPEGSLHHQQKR
α5β1 integrin, sequence (P08648 895-1049 partner limits assumed): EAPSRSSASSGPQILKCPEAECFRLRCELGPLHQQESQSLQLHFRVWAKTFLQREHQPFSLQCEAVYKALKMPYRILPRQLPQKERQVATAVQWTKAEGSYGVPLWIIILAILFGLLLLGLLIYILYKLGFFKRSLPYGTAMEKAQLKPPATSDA
α5β1 integrin, sequence (P05556 21-798): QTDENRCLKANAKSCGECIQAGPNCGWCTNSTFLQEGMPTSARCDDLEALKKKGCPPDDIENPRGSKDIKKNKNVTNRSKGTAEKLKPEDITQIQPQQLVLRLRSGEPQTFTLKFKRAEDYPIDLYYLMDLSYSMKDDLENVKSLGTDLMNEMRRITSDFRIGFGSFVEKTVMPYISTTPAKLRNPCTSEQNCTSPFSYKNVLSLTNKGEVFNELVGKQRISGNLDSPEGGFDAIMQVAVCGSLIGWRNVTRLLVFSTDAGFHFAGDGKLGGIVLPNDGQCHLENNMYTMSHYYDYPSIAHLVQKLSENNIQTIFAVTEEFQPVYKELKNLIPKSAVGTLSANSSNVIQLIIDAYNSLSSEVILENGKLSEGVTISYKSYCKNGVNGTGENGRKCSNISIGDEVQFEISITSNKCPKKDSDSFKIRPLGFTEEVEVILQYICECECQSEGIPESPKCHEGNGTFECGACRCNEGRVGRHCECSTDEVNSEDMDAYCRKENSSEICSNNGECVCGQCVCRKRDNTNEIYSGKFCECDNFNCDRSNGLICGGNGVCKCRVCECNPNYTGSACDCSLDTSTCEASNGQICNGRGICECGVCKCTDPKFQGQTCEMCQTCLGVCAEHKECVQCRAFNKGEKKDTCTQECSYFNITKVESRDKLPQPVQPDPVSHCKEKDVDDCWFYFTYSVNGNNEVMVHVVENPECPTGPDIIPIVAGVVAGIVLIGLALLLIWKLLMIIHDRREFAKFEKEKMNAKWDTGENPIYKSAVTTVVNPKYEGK

SMILES | IC50
CC1CCCCC1C(=O)N[C@@H](Cc1ccc(OCCc2ccc3c(n2)NCCC3)cc1)C(=O)O (stereo partly drawn) [Example 2.2, N-[(2-methylcyclohexyl)carbonyl]-O-[2-(5,6,7,8-tetrahydro-1,8-naphthyridin-2-yl)ethyl]-L-tyrosine] | < 1 nM
CNc1cccc(CCOc2ccc(C[C@H](NC(=O)C3CCCN3C)C(=O)O)cc2)n1 (stereo partly drawn) [Example 3, N-[(1-methylpyrrolidin-2-yl)carbonyl]-O-{2-[6-(methylamino)pyridin-2-yl]ethyl}-L-tyrosine] | 107 nM
CNc1cccc(CCOc2ccc(C[C@H](NC(=O)C(C)(C)C(=O)N3CCCC3)C(=O)O)cc2)n1 [Example 1.5, N-(2,2-dimethyl-3-oxo-3-pyrrolidin-1-ylpropanoyl)-O-{2-[6-(methylamino)pyridin-2-yl]ethyl}-L-tyrosine] | 2 nM
CNc1cccc(CCOc2ccc(C[C@H](NC(=O)C3CCCN3C(C)C)C(=O)O)cc2)n1 (stereo partly drawn) [Example 4, N-[(1-isopropylpyrrolidin-2-yl)carbonyl]-O-{2-[6-(methylamino)pyridin-2-yl]ethyl}-L-tyrosine] | 61 nM
CNc1cccc(CCOc2ccc(C[C@H](NC(=O)C3(CO)CCOCC3)C(=O)O)cc2)n1 [Example 1.20, N-{[4-(hydroxymethyl)tetrahydro-2H-pyran-4-yl]carbonyl}-O-{2-[6-(methylamino)pyridin-2-yl]ethyl}-L-tyrosine] | 32 nM
CNc1cccc(CCOc2ccc(C[C@H](NC(=O)C3CCCCC3)C(=O)O)cc2)n1 [Example 1.15, N-(cyclohexylcarbonyl)-O-{2-[6-(methylamino)pyridin-2-yl]ethyl}-L-tyrosine] | 32 nM
CNc1cccc(CCOc2ccc(C[C@H](NC(=O)C3CCCC3)C(=O)O)cc2)n1 [Example 1.16, N-(cyclopentylcarbonyl)-O-{2-[6-(methylamino)pyridin-2-yl]ethyl}-L-tyrosine] | 9 nM
CNc1cccc(CCOc2ccc(C[C@H](NC(=O)Cc3ccccc3)C(=O)O)cc2)n1 [Example 1.22, O-{2-[6-(methylamino)pyridin-2-yl]ethyl}-N-(phenylacetyl)-L-tyrosine] | 215 nM
CNc1cccc(CCOc2ccc(C[C@H](NC(=O)C3CCC3)C(=O)O)cc2)n1 [Example 1.17, N-(cyclobutylcarbonyl)-O-{2-[6-(methylamino)pyridin-2-yl]ethyl}-L-tyrosine] | 49 nM
CNc1cccc(CCOc2ccc(C[C@H](NC(=O)CCc3ccccc3)C(=O)O)cc2)n1 [Example 1.21, O-{2-[6-(methylamino)pyridin-2-yl]ethyl}-N-(3-phenylpropanoyl)-L-tyrosine] | 45 nM
CC1(C(=O)N[C@@H](Cc2ccc(OCCc3ccc4c(n3)NCCC4)cc2)C(=O)O)CCCCC1 [Example 2.1, N-[(1-methylcyclohexyl)carbonyl]-O-[2-(5,6,7,8-tetrahydro-1,8-naphthyridin-2-yl)ethyl]-L-tyrosine] | 1 nM
CNc1cccc(CCOc2ccc(C[C@H](NC(=O)C3CCCCC3C)C(=O)O)cc2)n1 (stereo partly drawn) [Example 1.2, O-{2-[6-(methylamino)pyridin-2-yl]ethyl}-N-[(2-methylcyclohexyl)carbonyl]-L-tyrosine] | 7 nM
CNc1cccc(CCOc2ccc(C[C@H](NC(=O)[C@@H](C)OC)C(=O)O)cc2)n1 [Example 1.19, N-[(2R)-2-methoxypropanoyl]-O-{2-[6-(methylamino)pyridin-2-yl]ethyl}-L-tyrosine] | 29 nM
CNc1cccc(CCOc2ccc(C[C@H](NC(=O)Cc3ccccn3)C(=O)O)cc2)n1 [Example 1.25, O-{2-[6-(methylamino)pyridin-2-yl]ethyl}-N-(pyridin-2-ylacetyl)-L-tyrosine] | 235 nM
CC(C)(C(=O)N[C@@H](Cc1ccc(OCCc2ccc3c(n2)NCCO3)cc1)C(=O)O)C(=O)N1CCCC1 [Example 5.2, O-[2-(3,4-dihydro-2H-pyrido[3,2-b][1,4]oxazin-6-yl)ethyl]-N-(2,2-dimethyl-3-oxo-3-pyrrolidin-1-ylpropanoyl)-L-tyrosine] | 4 nM
CNc1cccc(CCOc2ccc(C[C@H](NC(=O)C3(C)CCCCC3)C(=O)O)cc2)n1 [Example 1.1, O-{2-[6-(methylamino)pyridin-2-yl]ethyl}-N-[(1-methylcyclohexyl)carbonyl]-L-tyrosine] | 5 nM
CNc1cccc(CCOc2ccc(C[C@H](NC(=O)C3(OC)CCOCC3)C(=O)O)cc2)n1 [Example 1.7, N-[(4-methoxytetrahydro-2H-pyran-4-yl)carbonyl]-O-{2-[6-(methylamino)pyridin-2-yl]ethyl}-L-tyrosine] | 4 nM
CNc1cccc(CCOc2ccc(C[C@H](NC(=O)C3CC3)C(=O)O)cc2)n1 [Example 1.18, N-(cyclopropylcarbonyl)-O-{2-[6-(methylamino)pyridin-2-yl]ethyl}-L-tyrosine] | 608 nM
CCCCC(CC)C(=O)N[C@@H](Cc1ccc(OCCc2cccc(NC)n2)cc1)C(=O)O (stereo partly drawn) [Example 1.12, N-(2-ethylhexanoyl)-O-{2-[6-(methylamino)pyridin-2-yl]ethyl}-L-tyrosine] | 8 nM
CNc1cccc(CCOc2ccc(C[C@H](NC(=O)C(C)C)C(=O)O)cc2)n1 [Example 1.11, N-isobutyryl-O-{2-[6-(methylamino)pyridin-2-yl]ethyl}-L-tyrosine] | 73 nM
CNc1cccc(CCOc2ccc(C[C@H](NC(=O)Cc3ccncc3)C(=O)O)cc2)n1 [Example 1.27, O-{2-[6-(methylamino)pyridin-2-yl]ethyl}-N-(pyridin-4-ylacetyl)-L-tyrosine] | 287 nM
CNc1cccc(CCOc2ccc(C[C@H](NC(=O)Cc3cccnc3)C(=O)O)cc2)n1 [Example 1.26, O-{2-[6-(methylamino)pyridin-2-yl]ethyl}-N-(pyridin-3-ylacetyl)-L-tyrosine] | 525 nM
CC1(C(=O)N[C@@H](Cc2ccc(OCCc3ccc4c(n3)NCCO4)cc2)C(=O)O)CCCCC1 [Example 5.1, O-[2-(3,4-dihydro-2H-pyrido[3,2-b][1,4]oxazin-6-yl)ethyl]-N-[(1-methylcyclohexyl)carbonyl]-L-tyrosine] | 11 nM
CNc1cccc(CCOc2ccc(C[C@H](NC(=O)C(O)c3ccccc3)C(=O)O)cc2)n1 (stereo partly drawn) [Example 1.23, N-[hydroxy(phenyl)acetyl]-O-{2-[6-(methylamino)pyridin-2-yl]ethyl}-L-tyrosine] | 837 nM
CNc1cccc(CCOc2ccc(C[C@H](NC(=O)[C@H](CC(C)C)NC(=O)c3ccccc3)C(=O)O)cc2)n1 [Example 1.4, N-benzoylleucyl-O-{2-[6-(methylamino)pyridin-2-yl]ethyl}-L-tyrosine] | 66 nM
CNc1cccc(CCOc2ccc(C[C@H](NC(=O)C3CCCCCC3)C(=O)O)cc2)n1 [Example 1.14, N-(cycloheptylcarbonyl)-O-{2-[6-(methylamino)pyridin-2-yl]ethyl}-L-tyrosine] | 7 nM
CNc1cccc(CCOc2ccc(C[C@H](NC(=O)C(c3ccccc3)c3ccccc3)C(=O)O)cc2)n1 [Example 1.24, N-(diphenylacetyl)-O-{2-[6-(methylamino)pyridin-2-yl]ethyl}-L-tyrosine] | 45 nM
CC#CC(=O)N[C@@H](Cc1ccc(OCCc2cccc(NC)n2)cc1)C(=O)O [Example 1.8, N-but-2-ynoyl-O-{2-[6-(methylamino)pyridin-2-yl]ethyl}-L-tyrosine] | 363 nM
